# Reference: ChEMBL document CHEMBL1125202 (J Med Chem, 1991)
# Target: Sodium/potassium-transporting ATPase
# Assay: Inhibition of [3H]ouabain binding to Na/K ATP-ase in dog heart muscle
# Type: tissue-based, Canis lupus familiaris, Muscle tissue
row,Structure (SMILES),IC50 [nM]
1,C[C@]12CC[C@H](OC[C@H]3O[C@H](O)[C@H](O)[C@@H](O)[C@@H]3O)CC1CC[C@@H]1[C@@H]2CC[C@]2(C)[C@@H](C3=CC(=O)OC3)CC[C@@]12O (stereo not given in full),7
2,CC(O)C1CCC2(O)C3CCC4C[C@@H](OC[C@H]5O[C@@H](O)[C@H](O)[C@H](O)[C@H]5O)CCC4(C)C3CCC12C (stereo not given in full),400
3,CC(=O)C1CCC2(O)C3CCC4C[C@@H](OC[C@H]5O[C@@H](O)[C@H](O)[C@H](O)[C@H]5O)CCC4(C)C3CCC12C (stereo not given in full),500
4,C[C@]12CC[C@H](OC[C@H]3O[C@H](O)[C@H](O)[C@@H](O)[C@@H]3O)CC1CC[C@@H]1[C@@H]2CC[C@]2(C)[C@H](C3=CC(=O)OC3)CC[C@@]12O (stereo not given in full),3
5,CC(O)C1CCC2(O)C3CCC4C[C@H](OC[C@H]5O[C@@H](O)[C@H](O)[C@H](O)[C@H]5O)CCC4(C)C3CCC12C (stereo not given in full),75
6,CC(=O)C1CCC2(O)C3CCC4C[C@H](OC[C@H]5O[C@@H](O)[C@H](O)[C@H](O)[C@H]5O)CCC4(C)C3CCC12C (stereo not given in full),150
7,C[C@]12CC[C@H](OC[C@@H]3O[C@H](OC[C@@H]4O[C@H](OC[C@@H]5O[C@H](O)C[C@@H](O)[C@H]5O)C[C@@H](O)[C@H]4O)C[C@@H](O)[C@H]3O)C[C@@H]1CC[C@@H]1[C@@H]2CC[C@]2(C)[C@@H](C3=CC(=O)OC3)CC[C@@]12O,8
8,C[C@]12CC[C@H](OC[C@@H]3O[C@H](O)C[C@@H](O)[C@H]3O)C[C@@H]1CC[C@@H]1[C@@H]2CC[C@]2(C)[C@@H](C3=CC(=O)OC3)CC[C@@]12O,9
9,CC(O)[C@H]1CC[C@@]2(O)[C@@H]3CC[C@H]4C[C@@H](OC[C@@H]5O[C@H](OC[C@@H]6O[C@H](OC[C@@H]7O[C@H](O)C[C@@H](O)[C@H]7O)C[C@@H](O)[C@H]6O)C[C@@H](O)[C@H]5O)CC[C@]4(C)[C@H]3CC[C@]12C (stereo not given in full),650
10,CC(=O)[C@H]1CC[C@@]2(O)[C@@H]3CC[C@H]4C[C@@H](OC[C@@H]5O[C@H](OC[C@@H]6O[C@H](OC[C@@H]7O[C@H](O)C[C@@H](O)[C@H]7O)C[C@@H](O)[C@H]6O)C[C@@H](O)[C@H]5O)CC[C@]4(C)[C@H]3CC[C@]12C,1000
11,CC(O)[C@H]1CC[C@@]2(O)[C@@H]3CC[C@H]4C[C@@H](OC[C@@H]5O[C@H](O)C[C@@H](O)[C@H]5O)CC[C@]4(C)[C@H]3CC[C@]12C (stereo not given in full),650
12,C[C@]12CCCC[C@@H]1CC[C@@H]1[C@@H]2CC[C@]2(C)[C@@H](C3=CC(=O)OC3)CC[C@@]12O,70
13,C[C@]12CC[C@H](OC[C@@H]3O[C@H](OC[C@@H]4O[C@H](O)C[C@@H](O)[C@H]4O)C[C@@H](O)[C@H]3O)C[C@@H]1CC[C@@H]1[C@@H]2CC[C@]2(C)[C@@H](C3=CC(=O)OC3)CC[C@@]12O,8
14,CC(O)[C@H]1CC[C@@]2(O)[C@@H]3CC[C@H]4CCCC[C@]4(C)[C@H]3CC[C@]12C (stereo not given in full),24000
15,CC(=O)[C@H]1CC[C@@]2(O)[C@@H]3CC[C@H]4CCCC[C@]4(C)[C@H]3CC[C@]12C,> 200000
16,C[C@H](O)C1CC[C@@]2(O)[C@@H]3CC[C@H]4C[C@@H](OC[C@@H]5O[C@H](OC[C@@H]6O[C@H](O)C[C@@H](O)[C@H]6O)C[C@@H](O)[C@H]5O)CC[C@]4(C)[C@H]3CC[C@]12C (stereo not given in full),650
17,CC(=O)[C@H]1CC[C@@]2(O)[C@@H]3CC[C@H]4C[C@@H](OC[C@@H]5O[C@H](OC[C@@H]6O[C@H](O)C[C@@H](O)[C@H]6O)C[C@@H](O)[C@H]5O)CC[C@]4(C)[C@H]3CC[C@]12C,800
18,CC(=O)[C@H]1CC[C@@]2(O)[C@@H]3CC[C@H]4C[C@@H](OC[C@@H]5O[C@H](O)C[C@@H](O)[C@H]5O)CC[C@]4(C)[C@H]3CC[C@]12C,1300
19,CC(O)[C@H]1CC[C@@]2(O)[C@@H]3CCC4C[C@@H](O)CC[C@]4(C)[C@H]3CC[C@]12C (stereo not given in full),6400
20,CC(=O)[C@H]1CC[C@@]2(O)[C@@H]3CC[C@H]4C[C@@H](O)CC[C@]4(C)[C@H]3CC[C@]12C,20000
